{
  "source": "patent US4863942A",
  "about": "“Novel resorcinol ethers and anti-inflammatory and anti-allergic use thereof” (Ciba-Geigy Corporation, priority 1984, dated 1989)",
  "key": {"[1]": {"tested_on": "LTD4-induced bronchospasms", "test": "Bronchoconstriction test in guinea-pigs (in vivo, aerosol), LTD4-induced bronchospasm", "conditions": "aerosol treatment, compliance in third minute after LTD4 aerosol", "method": "(§1) For example, they have an anti-allergic action which is based on a pronounced LTD4 (leucotriene-D4) and PAF (PAF-acetoether) antagonism.\nBronchoconstriction test in guinea-pigs (in vivo, aerosol)\nMale guinea-pigs weighing from 400 to 700 g are anaesthetised intraperitoneally with 1.4 g/kg of urethane, and a polyethylene tube is introduced into the jugular vein. A second polyethylene tube is introduced into the trachea. The pressure in the oesophagus is recorded by means of a tube which is introduced into the oesophagus and which is connected to a Statham pressure transducer. […] The flow is measured by means of this arrangement. […]\nAqueous solutions are each freshly prepared and introduced by means of an on-stream drug vial into the chamber of the spray device. […] The reduction in the compliance in the third minute after the administration of LTD4 is read by comparing the average value of three animals with the average value of three control animals and the percentage inhibition of the compliance is calculated in accordance with the following formula: [formula] If different concentrations of active ingredient are investigated, then the percentage inhibition for each concentration is recorded by entering the log concentration on the abscissa against the percentage inhibition on the ordinate. […]"}, "[2]": {"target": "phospholipase A2 obtained from human leucocytes", "test": "In vitro test for determining the inhibition of phospholipase A2 obtained from human leucocytes", "type": "biochemical", "conditions": "pH 7, 37°, one hour, 14C-oleic acid labelled E. coli phospholipids", "excerpt": "In vitro test for determining the inhibition of phospholipase A2 obtained from human leucocytes Human neutrophilic polymorphonuclear leucocytes are isolated from \"buffy coats\" by multistage fractional sedimentation and deep-frozen. Phospholipase A2 is extracted from the cell suspension by homogenisation with the addition of ice-cold 0.36N H2 SO4 in 2M NaCl and the supernatant obtained after centrifugation at 10,000 g is dialysed against sodium acetate buffer pH 4.5. […] The reaction is stopped by the addition of Dole reagent (isopropanol/heptane/1N H2 SO4 40:10:1, v/v) and the ^14 C-oleic acid released selectively by phospholipase A2 is extracted. […] The ^14 C-oleic acid in the eluate is determined radiometrically. In order to ascertain the inhibitory action of test substances on phospholipase A2, these substances are added to the incubation mixture in the form of solutions in water, dimethyl sulphoxide (final concentration in the mixture up to 5% by volume) or ethanol (final concentration in the mixture up to 2.5% by volume). The strength of action of the test substances is expressed by the IC50, that is to say the concentration that brings about a 50% inhibition of the control activity The IC50 is ascertained on a graph by entering the percentage inhibition on the ordinate against the logarithm of the concentration (μM) on the abscissa."}, "[3]": {"tested_on": "LTD4-induced contractions of the isolated ileum", "test": "Inhibitory action on LTD4-induced contractions of the guinea-pig ileum", "type": "cell-based, guinea-pigs", "conditions": "Cavia porcellus; synthetic LTD4, guinea-pig ileum segments in Tyrode's solution, 38° C.", "method": "as §1\nInhibitory action on LTD4 -induced contractions of the guinea-pig ileum\nContractions, the severity of which is recorded, are induced by synthetic LTD4 (leucotriene-D4, potassium salt) in ileum segments that have been taken from guinea-pigs having a body weight of from 300 to 400 g, fastened in an organ bath in Tyrode's solution (38° C., gassing with 95% O2 and 5% CO2) and charged with […]. The degree of inhibition of these contractions that is attributable to the LTD4 -antagonistic action of the test substance is measured. The concentration of test substance that reduces LTD4 -induced contractions to 50% of the starting value is ascertained, this concentration being termed IC50."}, "[4]": {"target": "phospholipase C obtained from human thrombocytes", "test": "In vitro test for determining the inhibition of phospholipase C obtained from human thrombocytes", "type": "biochemical", "method": "In vitro test for determining the inhibition of phospholipase C obtained from human thrombocytes\nHuman thrombocytes are obtained from \"buffy coats\" by fractional centrifugation and then deep-frozen. Phospholipase C is released by ultrasound treatment of the cell suspension and, after ultracentrifugation (150,000 g, 1 hour) is in soluble form in the supernatant.\nIn order to determine the enzyme activity, enzyme (20-100 μg protein) is incubated for 5 minutes at 37° in 0.025M tris/malate buffer pH 6 with the addition of 0.2 mM CaCl2 and 0.02 mM radioactively labelled substrate, phosphatidyl- [^14 C]-inositol. The reaction is stopped by extraction by shaking with CHCl3 /CH3 OH 2:1 (v/v). Substrate that has not been consumed is extracted into the organic phase while the reaction product, ^14 C-inositol phosphate, remains in the aqueous phase and can be measured by radiometry of an aliquot.\nIn order to ascertain the inhibitory action of test substances on phospholipase C, these substances are added to the incubation mixture in the form of solutions in water or dimethyl sulphoxide (final concentration in the mixture up to 5% by volume). The strength of action of the test substances is expressed by the IC50, that is to say the concentration that brings about a 50% inhibition of the control activity. The IC50 is ascertained on a graph by entering the percentage inhibition on the ordinate against the logarithm of the concentration (μM) on the abscissa."}},
  "note": "Where two headings read alike, the source gives them in different places.",
  "data": [
    {"smiles": "CCCc1c(OCCCOc2cc(NC(=O)C(=O)O)c(C)cc2Br)ccc(C(C)=O)c1O", "note": "[N-{3-[3-(4-acetyl-3-hydroxy-2-n-propylphenoxy)-propoxy]-4-bromo-6-methylphenyl}-oxamic acid]", "values": [
      {"measurement": "IC50", "setting": "[1]", "value": "0.033 % of the aerosol solution"},
      {"measurement": "IC50", "setting": "[2]; read-out: IC50", "value": 15, "unit": "µM"}
    ]},
    {"smiles": "CCCc1c(OCCCOc2ccc(C)c(NC(=O)C(=O)O)c2)ccc(C(C)=O)c1O", "note": "[N-{3-[3-(4-acetyl-3-hydroxy-2-n-propylphenoxy)-propoxy]-6-methylphenyl}-oxamic acid]", "values": [
      {"measurement": "IC50", "setting": "[3]", "value": 0.015, "unit": "µM"},
      {"measurement": "IC50", "setting": "[1]", "value": "0.024 % of the aerosol solution"}
    ]},
    {"smiles": "CCCc1c(OCC(O)COc2cccc(NC(=O)C(=O)O)c2C#N)ccc(C(C)=O)c1O", "note": "(stereo not drawn) [N-{3-[3-(4-acetyl-3-hydroxy-2-n-propyl-phenoxy)-2-hydroxypropoxy]-2-cyanophenyl}-oxamic acid, reference compound]", "values": [
      {"measurement": "IC50", "setting": "[2]", "value": "inactive at 100"},
      {"measurement": "IC50", "setting": "[4]; pH 6, 37°, 5 minutes, phosphatidyl-[14C]-inositol", "value": "inactive at 100"}
    ]},
    {"smiles": "CCCc1c(OCCCOc2cc(NC(=O)c3nnn[nH]3)c(C)cc2Br)ccc(C(C)=O)c1O", "note": "[N-{3-[3-(4-acetyl-3-hydroxy-2-n-propylphenoxy)-propoxy]-4-bromo-6-methylphenyl}-1H-tetrazole-5-carboxamide]", "values": [
      {"measurement": "IC50", "setting": "[3]", "value": 0.008, "unit": "µM"},
      {"measurement": "IC50", "setting": "[2]; read-out: IC50", "value": 10, "unit": "µM"}
    ]},
    {"smiles": "CCCc1c(OCC(O)COc2cccc(NC(=O)C(=O)O)c2)ccc(C(C)=O)c1O", "note": "(stereo not drawn) [N-{3-[3-(4-acetyl-3-hydroxy-2-n-propyl-phenoxy)-2-hydroxypropoxy]-phenyl}-oxamic acid, reference compound]", "values": [
      {"measurement": "IC50", "setting": "[2]", "value": "inactive at 100"}
    ]},
    {"smiles": "CCCc1c(OCCCOc2cccc(NC(=O)C(=O)O)c2)ccc(C(C)=O)c1O", "note": "[N-{3-[3-(4-acetyl-3-hydroxy-2-n-propylphenoxy)-propoxy]-phenyl}-oxamic acid]", "values": [
      {"measurement": "IC50", "setting": "[2]; read-out: IC50", "value": 23, "unit": "µM"}
    ]},
    {"smiles": "CCCc1c(OCCCOc2cccc(NC(=O)C(=O)O)c2C#N)ccc(C(C)=O)c1O", "note": "[N-{3-[3-(4-acetyl-3-hydroxy-2-n-propylphenoxy)-propoxy]-2-cyanophenyl}-oxamic acid]", "values": [
      {"measurement": "IC50", "setting": "[2]; read-out: IC50", "value": 30, "unit": "µM"}
    ]},
    {"smiles": "CCN(CC)CCCC(C)Nc1c2ccc(Cl)cc2nc2ccc(OC)cc12", "note": "(stereo not drawn) [mepacrine, reference compound]", "values": [
      {"measurement": "IC50", "setting": "[2]; read-out: IC50", "value": 1600, "unit": "µM"},
      {"measurement": "IC50", "setting": "[4]; mepacrine under the test conditions described, read-out: IC50", "value": 20, "unit": "µM"}
    ]},
    {"smiles": "CCCc1c(OCCCOc2cccc(NC(=O)c3nnn[nH]3)c2C#N)ccc(C(C)=O)c1O", "note": "[N-{3-[3-(4-acetyl-3-hydroxy-2-n-propylphenoxy)-propoxy]-2-cyanophenyl}-1H-tetrazole-5-carboxamide]", "values": [
      {"measurement": "IC50", "setting": "[2]; read-out: IC50", "value": 20, "unit": "µM"},
      {"measurement": "IC50", "setting": "[4]; pH 6, 37°, 5 minutes, phosphatidyl-[14C]-inositol, read-out: IC50", "value": 14, "unit": "µM"}
    ]}
  ]
}
